# Test results published in publication PMC6176987, “Correction of cognitive deficits in mouse models of Down syndrome by a pharmacological inhibitor of DYRK1A” (Disease Models & Mechanisms, 2018).
# How the values were obtained:
# CDK9/cyclin T = target: T1, CDK9/cyclin T (Homo sapiens, UniProt P50750); test: Recombinant protein kinase assay, CDK9/cyclin T; type: biochemical; conditions: 15 µM ATP
# T1 construct: made in house; host or cells: insect cells
# CDK2/cyclin A = CDK2/cyclin A (Homo sapiens, UniProt P24941); test: Recombinant protein kinase assay, CDK2/cyclin A; type: biochemical; conditions: 15 µM ATP
# Dyrk1a mRNA = test: Brain Dyrk1a mRNA expression by qPCR after treatment; type: in vivo, mouse; conditions: 19 days daily i.p., Tg(Dyrk1a), Ts65Dn and wt brains
# Source text: To validate the Tg(Dyrk1a) and Ts65Dn models in terms of DYRK1A expression and function, we first verified the expression levels of Dyrk1a mRNA (Fig. 4A) and DYRK1A protein (Fig. 4B) in brains derived from control or L41-treated animals (19 days, daily i.p.). Total mRNAs were extracted from brains and Dyrk1a, Gsk-3b and Rplp0 mRNAs were quantified by quantitative polymerase chain reaction (qPCR) with specific primers. […] We next measured DYRK1A catalytic activities from transgenic and wt brain protein extracts (Fig. 4C). […] As expected, DYRK1A activity was elevated by ∼1.5- to 1.8-fold in transgenic brains compared with wt brains (Fig. 4C).
# Fig. 4. Dyrk1a mRNA and DYRK1A protein expression, and catalytic activity in Tg(Dyrk1a) and corresponding wt mice brains, and in Ts65Dn and corresponding wt mice brains. (A) mRNA expression. Total RNA was extracted, purified and reverse transcribed into cDNA. mRNA expression of Dyrk1a, Gsk-3b and reference Rplp0 was quantified by qPCR from the amplification of cDNA with specific primers (one primer annealing to an exon-exon junction). Results are presented as mean±s.e. of four to six measurements and are shown relative to Rplp0 expression, normalized to wt Gsk-3b expression. (B) Protein expression. Total proteins were extracted, resolved by SDS-PAGE and analysed by WB using antibodies directed against DYRK1A, GSK-3α/β and actin (loading control). […]
# Tg(Dyrk1a) mice = test: Place object location (POR) spatial memory in Tg(Dyrk1a) mice; type: in vivo, mouse; conditions: L41-treated Tg(Dyrk1a) mice
# DYRK1A [1] = test: Brain DYRK1A protein expression by western blotting after treatment; type: in vivo, mouse; conditions: 19 days daily i.p., transgenic and wt brains
# Description: Brains were obtained from mice and snap-frozen until further use. Then tissues were weighed, homogenized and sonicated in 1 ml lysis buffer (60 mM β-glycerophosphate, 15 mM p-nitrophenylphosphate, 25 mM Mops pH 7.2, 15 mM EGTA, 15 mM MgCl2, 2 mM dithiothreitol, 1 mM sodium orthovanadate, 1 mM sodium fluoride, 1 mM phenylphosphate disodium and protease inhibitor cocktail) per g of material. Homogenates were centrifuged for 15 min at 17,000 g and 4°C. The supernatant was recovered and assayed for protein content (Bio-Rad, France). The proteins were separated by 10% NuPAGE pre-cast Bis-Tris polyacrylamide mini gel electrophoresis (Invitrogen, France) with MOPS-SDS running buffer. Proteins were transferred to 0.45-µm nitrocellulose filters (Schleicher and Schuell, Germany). They were blocked with 5% low-fat milk in Tris-buffered […]/Tween 20, and incubated overnight at 4°C with antibodies. Anti-DYRK1A (H00001859-M01; 1:1000) and anti-GSK-3α/β (KAM-ST002E; 1:1000) were obtained from Interchim (France) and Stressgen (France), respectively. Appropriate secondary antibodies conjugated to horseradish peroxidase (Bio-Rad) were added to visualize the proteins using the enhanced chemiluminescence reaction (ECL, Amersham, France).
# DYRK1A [2] = target: T2, DYRK1A (Mus musculus, UniProt Q61214); test: Brain DYRK1A catalytic activity after treatment, Ts65Dn mice; type: in vivo; conditions: 19 days daily i.p., normalized to GSK-3α/β activity
# T2 construct: DYRK1A was purified from brain extracts by immunoprecipitation; from tissue; host or cells: mouse brain (wt, Tg(Dyrk1a), Ts65Dn)
# Description: Protein kinase assays to measure the catalytic activity of DYRK1A in the brains of the animals treated with or without drugs were performed as follows: frozen half brains were homogenized in lysis buffer (1.2 ml/half brain) using Precellys® homogenizer tubes. After centrifugation at 2800 g for 2×15 s, 1 mg brain extract was incubated with 2 µg DYRK1A (H00001859 M01, Interchim) or GSK3-β (MBS8508391, Emelca Bioscience, France) antibodies at 4°C for 1 h under gentle rotation. Then, 20 µl protein G agarose beads (Thermo Fisher Scientific, France), previously washed three times with bead buffer (50 mM Tris pH 7.4, 5 mM NaF, 250 mM NaCl, 5 mM EDTA, 5 mM EGTA, 0.1% Nonidet P-40 and protease inhibitor cocktail from Roche, France), were added to the mix and gently rotated at 4°C for 30 min. After a 1 min spin at 10,000 g and removal of the supernatant, the pelleted immune complexes were washed three times with bead buffer, and a last time with Buffer C (60 mM β-glycerophosphate, 30 mM p-nitrophenolphosphate, 25 mM Mops pH 7.2, 5 mM EGTA, 15 mM MgCl2, 2 mM dithiothreitol, 0.1 mM sodium orthovanadate, 1 mM phenylphosphate, protease inhibitor cocktail). DYRK1A or GSK-3 immobilized on beads were assayed in buffer C as described in the Supplementary Materials and Methods with Woodtide ([…]) (1.5 µg/assay) or GSK3-tide ([…]pSED-EEE, where pS stands for phosphorylated serine) as substrates.
# T1 sequence (P50750 whole entry): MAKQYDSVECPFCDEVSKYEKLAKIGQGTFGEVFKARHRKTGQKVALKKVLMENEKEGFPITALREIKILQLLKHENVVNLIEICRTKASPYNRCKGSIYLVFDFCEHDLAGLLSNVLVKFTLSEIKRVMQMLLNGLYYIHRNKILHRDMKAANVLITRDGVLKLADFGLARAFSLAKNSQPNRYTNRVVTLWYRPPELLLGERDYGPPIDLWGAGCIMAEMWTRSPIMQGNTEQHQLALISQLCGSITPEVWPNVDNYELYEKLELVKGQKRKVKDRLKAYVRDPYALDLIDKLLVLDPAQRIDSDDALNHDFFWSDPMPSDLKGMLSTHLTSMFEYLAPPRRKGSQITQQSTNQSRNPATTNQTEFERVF
# T1 sequence (O60563 whole entry partner): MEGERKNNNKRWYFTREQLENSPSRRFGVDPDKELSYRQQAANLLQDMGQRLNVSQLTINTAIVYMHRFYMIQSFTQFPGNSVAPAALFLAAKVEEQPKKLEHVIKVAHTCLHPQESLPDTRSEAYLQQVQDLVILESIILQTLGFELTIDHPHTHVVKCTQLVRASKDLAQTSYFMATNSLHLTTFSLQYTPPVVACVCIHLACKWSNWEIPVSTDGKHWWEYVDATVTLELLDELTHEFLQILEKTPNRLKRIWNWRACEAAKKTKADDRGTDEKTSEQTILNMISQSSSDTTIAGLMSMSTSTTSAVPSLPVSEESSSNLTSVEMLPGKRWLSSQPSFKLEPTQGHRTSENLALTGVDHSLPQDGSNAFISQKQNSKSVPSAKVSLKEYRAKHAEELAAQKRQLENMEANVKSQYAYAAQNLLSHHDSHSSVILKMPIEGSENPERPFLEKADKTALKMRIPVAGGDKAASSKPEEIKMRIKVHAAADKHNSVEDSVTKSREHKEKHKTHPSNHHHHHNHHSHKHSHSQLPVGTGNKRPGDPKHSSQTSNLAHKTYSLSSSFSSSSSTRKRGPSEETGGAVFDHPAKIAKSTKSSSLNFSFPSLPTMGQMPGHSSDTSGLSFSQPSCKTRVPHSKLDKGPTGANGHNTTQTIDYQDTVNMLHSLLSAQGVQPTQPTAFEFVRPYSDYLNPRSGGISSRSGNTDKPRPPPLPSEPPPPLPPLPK
structure (smiles),measurement,setting,value
O=C1NC(Nc2ccccc2)=N/C1=C\c1ccc2c(c1)OCO2 [L41],IC50,CDK9/cyclin T,> 10 µM
same,IC50,CDK2/cyclin A,> 10 µM
same,Effect on Dyrk1a mRNA levels,Dyrk1a mRNA,did not modify
same,Effect on place memory (place object location),Tg(Dyrk1a) mice,no restoring effect
same,Effect on expression of DYRK1A and GSK-3α/β protein,DYRK1A [1],no effect
same,Reduction of brain DYRK1A activity,DYRK1A [2],~30%
